The IC50 is the concentration that inhibits the measured activity by half.

For one experiment, the system named is ATXN3 pre-mRNA. In words: RT-qPCR Assay to Quantify Exon 4 Skipping in ATXN3 pre-mRNA in Cells. The class given is cell-based. Particulars: percent exon 4 skipping in ATXN3 pre-mRNA, RT-qPCR of cell lysates; average IC50. In a few lines: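 IC50 derives from a dose-response fit of percent exon 4 skipping, quantified by RT-qPCR on crude lysates. Compounds tested as 7-point 3.16-fold dilutions in duplicate; cells (10,000/well) were exposed for 24 h at 37 °C before lysis.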
A general note: Quantitative PCR measures a nucleic acid by following its amplification.

In experiment [1] the test system is Total ATXN3 (tATXN3) protein. Put plainly: Endogenous Total ATXN3 (tATXN3) Protein Assay (MSD immunoassay of cell lysates). The class given is cell-based. As to conditions: average IC50, total ATXN3 protein in cell lysate after 48 h with compound (Table 1). In a few lines: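 By electrochemiluminescent MSD sandwich immunoassay (mouse monoclonal capture, rabbit monoclonal and SULFO-TAG anti-rabbit detection), endogenous ATXN3 was quantified in lysates of cells treated 48 h at 37° C at 10,000 cells/well. Treatment used a 7-point 3.16-fold duplicate dilution series, with average IC50 grouped into star categories.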

Take `Cc1c([C@@H]2CCC[C@H]2N)sc2c(NCc3cccs3)cc(Cl)nc12` [Compound 5, 2-((1R,2R)-2-aminocyclopentyl)-5-chloro-3-methyl-N-(thiophen-2-ylmethyl)thieno[3,2-b]pyridin-7-amine]: the IC50 (in the experiment on ATXN3 pre-mRNA; in experiment [1]) was greater than 1000 nM each time.
`Cc1c([C@H]2CCC[C@@H]2N)sc2c(NCc3cccs3)cc(Cl)nc12` [Compound 6, 2-((1S,2S)-2-aminocyclopentyl)-5-chloro-3-methyl-N-(thiophen-2-ylmethyl)thieno[3,2-b]pyridin-7-amine]: the half-maximal inhibitory concentration (IC50) (in the experiment on ATXN3 pre-mRNA; in experiment [1]) was 30 to 300 nM each time.
In the case of `N[C@@H]1CCC[C@H]1c1sc2c(NCc3cccs3)cc(Cl)nc2c1Br` [Compound 7, 2-((1R,2R)-2-aminocyclopentyl)-3-bromo-5-chloro-N-(thiophen-2-ylmethyl)thieno[3,2-b]pyridin-7-amine], the IC50 (in the experiment on ATXN3 pre-mRNA; in experiment [1]) was 300 to 1000 nM throughout.
As to `N[C@H]1CCC[C@@H]1c1sc2c(NCc3cccs3)cc(Cl)nc2c1Br` [Compound 8, 2-((1S,2S)-2-aminocyclopentyl)-3-bromo-5-chloro-N-(thiophen-2-ylmethyl)thieno[3,2-b]pyridin-7-amine], the IC50 (with ATXN3 pre-mRNA; in experiment [1]) was no more than 30 nM in each case.
Turning to `N[C@@H]1CCC[C@@H]1c1cc2nc(Cl)cc(NCc3cccs3)c2s1` [Compound 9, 2-((1S,2R)-2-aminocyclopentyl)-5-chloro-N-(thiophen-2-ylmethyl)thieno[3,2-b]pyridin-7-amine], the IC50 is 300 to 1000 nM with ATXN3 pre-mRNA and greater than 1000 nM in experiment [1].
In the same order, the values of `N[C@H]1CCC[C@@H]1c1cc2nc(Cl)cc(NCc3cccs3)c2s1` [Compound 10, 2-((1S,2S)-2-aminocyclopentyl)-5-chloro-N-(thiophen-2-ylmethyl)thieno[3,2-b]pyridin-7-amine] are 300 to 1000 nM and 300 to 1000 nM.
On the same counts, the results for `CCc1c([C@H]2CCC[C@@H]2N)sc2c(NCc3cccs3)cc(Cl)nc12` [Compound 11, 2-((1S,2S)-2-aminocyclopentyl)-5-chloro-3-ethyl-N-(thiophen-2-ylmethyl)thieno[3,2-b]pyridin-7-amine] are 30 to 300 nM and 300 to 1000 nM.
On the same counts, the results for `CCc1c([C@@H]2CCC[C@H]2N)sc2c(NCc3cccs3)cc(Cl)nc12` [Compound 12, 2-((1R,2R)-2-aminocyclopentyl)-5-chloro-3-ethyl-N-(thiophen-2-ylmethyl)thieno[3,2-b]pyridin-7-amine] are greater than 1000 nM and greater than 1000 nM.
For the compound `N[C@H]1CCCC[C@H]1c1sc2c(NCc3cccs3)cc(Cl)nc2c1Cl` [Compound 13, 2-((1R,2S)-2-aminocyclohexyl)-3,5-dichloro-N-(thiophen-2-ylmethyl)thieno[3,2-b]pyridin-7-amine], the IC50 (in the experiment on ATXN3 pre-mRNA; in experiment [1]) was 30 to 300 nM each time.
For the compound `N[C@@H]1CCCC[C@@H]1c1sc2c(NCc3cccs3)cc(Cl)nc2c1Cl` [Compound 14, 2-((1S,2R)-2-aminocyclohexyl)-3,5-dichloro-N-(thiophen-2-ylmethyl)thieno[3,2-b]pyridin-7-amine], the IC50 (in the experiment on ATXN3 pre-mRNA; in experiment [1]) was greater than 1000 nM throughout.
Consider `N[C@@H]1CCCO[C@@H]1c1sc2c(NCc3cccs3)cc(Cl)nc2c1Br` [Compound 15, 2-((2S,3R)-3-aminotetrahydro-2H-pyran-2-yl)-3-bromo-5-chloro-N-(thiophen-2-ylmethyl)thieno[3,2-b]pyridin-7-amine], for which the IC50 (in the experiment with ATXN3 pre-mRNA; in experiment [1]) was 300 to 1000 nM each time.
As to `N[C@@H]1CCCO[C@H]1c1sc2c(NCc3cccs3)cc(Cl)nc2c1Cl` [Compound 16, 2-((2R,3R)-3-aminotetrahydro-2H-pyran-2-yl)-3,5-dichloro-N-(thiophen-2-ylmethyl)thieno[3,2-b]pyridin-7-amine], the IC50 (in the experiment with ATXN3 pre-mRNA; in experiment [1]) was greater than 1000 nM in each case.
Consider `N[C@@H]1CCCO[C@@H]1c1sc2c(NCc3cccs3)cc(Cl)nc2c1Cl` [Compound 17, 2-((2S,3R)-3-aminotetrahydro-2H-pyran-2-yl)-3,5-dichloro-N-(thiophen-2-ylmethyl)thieno[3,2-b]pyridin-7-amine], for which the IC50 (in the experiment on ATXN3 pre-mRNA; in experiment [1]) was greater than 1000 nM throughout.
As to `N[C@H]1CCCO[C@@H]1c1sc2c(NCc3cccs3)cc(Cl)nc2c1Cl` [Compound 18, 2-[(2S,3S)-3-aminotetrahydropyran-2-yl]-3,5-dichloro-N-(2-thienylmethyl)thieno[3,2-b]pyridin-7-amine], the IC50 (in the experiment on ATXN3 pre-mRNA; in experiment [1]) was no more than 30 nM each time.
Turning to `N[C@H]1CCCO[C@H]1c1sc2c(NCc3cccs3)cc(Cl)nc2c1Cl` [Compound 19, 2-((2R,3S)-3-aminotetrahydro-2H-pyran-2-yl)-3,5-dichloro-N-(thiophen-2-ylmethyl)thieno[3,2-b]pyridin-7-amine], the IC50 (in the experiment on ATXN3 pre-mRNA; in experiment [1]) was 30 to 300 nM in each case.
In the case of `N[C@H]1CCCC[C@@H]1c1cc2nc(Cl)cc(NCc3cccs3)c2s1` [Compound 21, 2-((1S,2S)-2-aminocyclohexyl)-5-chloro-N-(thiophen-2-ylmethyl)thieno[3,2-b]pyridin-7-amine], the IC50 (with ATXN3 pre-mRNA; in experiment [1]) was 30 to 300 nM in each case.
With `N[C@H]1CCCC[C@H]1c1cc2nc(Cl)cc(NCc3cccs3)c2s1` [Compound 22, 2-((1R,2S)-2-aminocyclohexyl)-5-chloro-N-(thiophen-2-ylmethyl)thieno[3,2-b]pyridin-7-amine], the IC50 (with ATXN3 pre-mRNA; in experiment [1]) was 300 to 1000 nM in each case.
Regarding `N[C@@H]1CCCC[C@H]1c1cc2nc(Cl)cc(NCc3cccs3)c2s1` [Compound 23, 2-((1R,2R)-2-aminocyclohexyl)-5-chloro-N-(thiophen-2-ylmethyl)thieno[3,2-b]pyridin-7-amine], the IC50 (with ATXN3 pre-mRNA; in experiment [1]) was greater than 1000 nM each time.
On to `N[C@H]1CCCC[C@]1(O)c1sc2c(NCc3cccs3)cc(Cl)nc2c1Cl` [Compound 31, (1R,2S)-2-amino-1-(3,5-dichloro-7-((thiophen-2-ylmethyl)amino)thieno[3,2-b]pyridin-2-yl)cyclohexan-1-ol], for which the IC50 (in the experiment on ATXN3 pre-mRNA; in experiment [1]) was greater than 1000 nM throughout.
On to `N[C@H]1CCCC[C@]1(F)c1sc2c(NCc3cccs3)cc(Cl)nc2c1Cl` [Compound 32, 2-((1R,2S)-2-amino-1-fluorocyclohexyl)-3,5-dichloro-N-(thiophen-2-ylmethyl)thieno[3,2-b]pyridin-7-amine], for which the IC50 (in the experiment on ATXN3 pre-mRNA; in experiment [1]) was 30 to 300 nM in each case.
Regarding `Cc1c([C@H]2OCCC[C@@H]2N)sc2c(NCc3ccccc3F)cc(Cl)nc12` [Compound 33, 2-((2S,3S)-3-aminotetrahydro-2H-pyran-2-yl)-5-chloro-N-(2-fluorobenzyl)-3-methylthieno[3,2-b]pyridin-7-amine], the IC50 (in the experiment with ATXN3 pre-mRNA; in experiment [1]) was 30 to 300 nM each time.
`N[C@H]1CCCC[C@]1(F)c1sc2c(NCc3ccccc3)cc(Cl)nc2c1Br` [Compound 37, 2-((1R,2S)-2-amino-1-fluorocyclohexyl)-N-benzyl-3-bromo-5-chlorothieno[3,2-b]pyridin-7-amine]: the IC50 in the experiment on ATXN3 pre-mRNA fell in the range of 30 to 300 nM; in experiment [1], 300 to 1000 nM.
On the same counts, the results for `N[C@H]1CCCC[C@]1(F)c1sc2c(NCc3ccco3)cc(Cl)nc2c1Cl` [Compound 38, 2-((1R,2S)-2-amino-1-fluorocyclohexyl)-3,5-dichloro-N-(furan-2-ylmethyl)thieno[3,2-b]pyridin-7-amine] are 30 to 300 nM and 30 to 300 nM.

The values are drawn from patent publication US20250382305A1 (PTC THERAPEUTICS, INC., priority 2022, published 2025).
